Test results reported in paper PMC7562955 (Nature Communications, 2020).

Key:
[1] = tested on: TLR7; experiment: Glutaraldehyde crosslinking assay of ligand-induced TLR7 dimerization; assay type: biochemical, Monkey (Macaca mulatta)
Experimental: The recombinant TLR7 proteins expressed in Drosophila S2 cells (Thermo Fisher Scientific) using Monkey (Macaca mulatta) TLR7 extracellular domain expression construct with N167Q, N399Q, N488Q and N799Q mutations and cleavable Z-loop and C-terminal protein A tag were prepared and were stored in a buffer containing 10 mM Tris-HCl pH 7.5 and 150 mM NaCl at concentrations of 10–15 mg ml^−1. Briefly, the purification steps included IgG affinity purification, the Z-loop and the protein A tag cleavage, and gel-filtration chromatography. Glycan-trimmed TLR7 proteins, expressed in the presence of 1.5 mg l^−1 kifunensine (Glycosyn) and treated by Endo Hf (New England Biolabs) were used for crystallization. Glycan-untrimmed proteins were used in ITC analysis, crosslinking assay, negative-staining EM and cryo-EM (200 kV microscopes) analyses. Glycan-trimmed TLR7 proteins with partially-uncleaved protein A tag were used for cryo-EM analysis using Tatan Krios (Supplementary Fig. 11).
For glutaraldehyde crosslinking assay (Fig. 2b), proteins were buffer exchanged into a buffer containing 10 mM HEPES-NaOH, pH 8.0, 150 mM NaCl and were concentrated to ~13 mg/ml using Amicon Ultra devices (Merck). Protein concentrations were adjusted to 25 µM using buffers containing 10 mM HEPES-NaOH, pH 7.0, 150 mM NaCl (for neutral condition) or 50 mM citrate-NaOH pH 5.0, 150 mM NaCl (for acidic condition). Cpd-3, Cpd-6 or Cpd-7 were added to final concentrations of 100 or 1000 µM. The reactions were started by adding glutaraldehyde (Wako) to a final concentration of 5 mM (for neutral condition) or 20 mM (for acidic condition), incubated at ambient temperature for 25 min and quenched by adding Tris-HCl pH 7.5 to a final concentration of 100 mM. Crosslinked samples were analyzed by non-reducing SDS-PAGE. Quantitative analysis of the SDS-PAGE gel image was performed with Image-J.

[2] = target: T1, TLR7 (Homo sapiens, UniProt Q9NYK1); experiment: Human TLR7 reporter gene agonistic activity assay; assay type: cell-based; parameters: host or cells: HEK293 (TLR7/NF-κB/SEAPorter)
T1 sequence (Q9NYK1 27-1049): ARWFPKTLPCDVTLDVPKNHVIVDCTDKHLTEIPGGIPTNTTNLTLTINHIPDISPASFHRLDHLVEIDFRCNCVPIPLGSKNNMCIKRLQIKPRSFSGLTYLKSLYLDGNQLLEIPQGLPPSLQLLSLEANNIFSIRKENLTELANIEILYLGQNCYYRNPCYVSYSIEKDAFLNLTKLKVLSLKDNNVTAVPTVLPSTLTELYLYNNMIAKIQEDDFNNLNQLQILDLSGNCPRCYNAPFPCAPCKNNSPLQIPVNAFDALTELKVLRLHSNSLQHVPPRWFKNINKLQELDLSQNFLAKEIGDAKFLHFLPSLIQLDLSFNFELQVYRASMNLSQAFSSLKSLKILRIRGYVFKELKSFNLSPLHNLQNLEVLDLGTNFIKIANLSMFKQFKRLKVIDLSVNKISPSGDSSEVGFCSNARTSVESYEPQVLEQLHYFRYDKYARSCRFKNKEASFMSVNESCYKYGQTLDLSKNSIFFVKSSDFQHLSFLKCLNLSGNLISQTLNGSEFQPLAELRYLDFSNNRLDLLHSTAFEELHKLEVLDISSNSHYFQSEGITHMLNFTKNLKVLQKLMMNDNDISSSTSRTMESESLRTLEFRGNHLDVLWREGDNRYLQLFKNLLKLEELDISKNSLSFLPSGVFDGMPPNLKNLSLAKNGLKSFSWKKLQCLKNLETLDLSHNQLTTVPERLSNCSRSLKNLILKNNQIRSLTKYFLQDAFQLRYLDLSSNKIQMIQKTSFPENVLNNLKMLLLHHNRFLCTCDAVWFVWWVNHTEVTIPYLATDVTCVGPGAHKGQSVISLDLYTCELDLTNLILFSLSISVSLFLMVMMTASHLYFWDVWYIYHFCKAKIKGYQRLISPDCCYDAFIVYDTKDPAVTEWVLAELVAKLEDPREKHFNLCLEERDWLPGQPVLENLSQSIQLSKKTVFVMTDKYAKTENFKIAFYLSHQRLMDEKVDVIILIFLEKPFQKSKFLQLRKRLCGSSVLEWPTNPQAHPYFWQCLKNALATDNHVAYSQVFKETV
Experimental: Compounds were dissolved in dimethyl sulfoxide. Before stimulation with compound, Human TLR7 reporter cell line (Novus Biological) was seeded in 96-well microtiter plate (AGC techno glass) at 5 × 10^4 cells/well in DMEM (GIBCO) with 10% fetal bovine serum (GIBCO), and 10 ug/ml Blastcidin S HCl (GIBCO) and incubated at 37 °C in 5% CO2. The plates were incubated over-night and then stimulated with various concentrations of compound and R848. The plates were then incubated an additional 20 ± 1 h at 37 °C in 5% CO2 and then the secreted embryonic alkaline phosphatase (SEAP) activity was measured as activation of human TLR7. The SEAP activity was evaluated as follows: pNPP (Invitrogen, USA) was added to the incubated sample (50 μl/well); after 15 min, 4 M sodium hydroxide solution (nacalai tesque, Japan) was added thereto (50 μl/well) to quench the reaction; and the absorbance of each sample was measured at 405 nm with microplate reader SpectraMax M4 (Molecular Devices, USA).

[3] = pH 5.0, ligand + (100 or 1000 µM used)
[4] = pH 5.0, ligand ++ (100 or 1000 µM used)
[5] = pH 7.0, ligand + (100 or 1000 µM used)
[6] = pH 7.0, ligand ++ (100 or 1000 µM used)

Compound | ligand-induced TLR7 dimerization ([1]; neutral or acidic pH) | Band intensity Dimer [1, 3] | Band intensity Monomer [1, 3] | Band intensity Dimer [1, 4] | Band intensity Monomer [1, 4] | Band intensity Dimer [1, 5] | Band intensity Monomer [1, 5] | Band intensity Dimer [1, 6] | Band intensity Monomer [1, 6] | activation of human TLR7, reporter signal ([2]; compound 0.001 nM (as headed)) | activation of human TLR7, reporter signal ([2]; compound 0.003 nM (as headed)) | activation of human TLR7, reporter signal ([2]; compound 0.01 nM (as headed)) | activation of human TLR7, reporter signal ([2]; compound 0.03 nM (as headed)) | activation of human TLR7, reporter signal ([2]; compound 0.1 nM (as headed)) | activation of human TLR7, reporter signal ([2]; compound 0.3 nM (as headed)) | activation of human TLR7, reporter signal ([2]; compound 1 nM (as headed)) | activation of human TLR7, reporter signal ([2]; compound 3 nM (as headed)) | activation of human TLR7, reporter signal ([2]; compound 10 nM (as headed)) | activation of human TLR7, reporter signal ([2]; compound 30 nM (as headed)) | activation of human TLR7, reporter signal ([2]; compound 100 nM (as headed))
COCCOc1nc(N)c2[nH]c(=O)n(Cc3cccnc3)c2n1 [Cpd-3] | induced almost complete dimerization under both neutral and acidic conditions | 16031.2 | 5165.8 | 16425.6 | 4634.68 | 17958.5 | 7371.24 | 17537.6 | 7105.24 |  |  |  |  |  |  |  |  |  |  | 
CCOCc1nc2c(N)nc3ccccc3c2n1CC(C)(C)O [R848, reference compound] |  |  |  |  |  |  |  |  |  | -0.0355 | -0.0898 | -0.0215 | 0.2447 | 1.76 | 3.124 | 3.25 | 3.172 | 3.25 | 3.234 | 3.25
